Measured values from patent US20120088664A1, “Antifungal 1,2,4-triazolyl derivatives having a 5-sulfur subtituent” (BASF SE, priority 2009, published 2012).

Tests used:
Botrytis cinerea = assay: Preventative control of grey mold (Botrytis cinerea) on leaves of green pepper (greenhouse test); type: in vivo; conditions: 300 ppm active compound, green pepper seedlings sprayed to run-off, inoculated next day, assessed after 5 days; untreated plants 90% infected
Phytophthora infestans = type: in vivo; conditions: 300 ppm active compound, tomato plants sprayed to run-off, inoculated next day, assessed after 6 days; untreated plants 90% infected

Row | Structure (SMILES) | melting point | infection (fungal attack on the leaves visually assessed as % diseased leaf area) (Botrytis cinerea) | infection (fungal attack on the leaves visually assessed as % diseased leaf area) (Phytophthora infestans)
1 | Cc1ccc(CCC(O)(Cn2nc[nH]c2=S)C(C)(C)C)cc1 (stereo not shown) [Example 5, 1-(2-hydroxy-3,3-dimethyl-2-(4-methylphenethyl)butyl)-1H-1,2,4-triazole-5(4H)-thione] | 137 to 138 °C | – | –
2 | CC(C)(C)C(O)(CCc1ccc(F)cc1F)Cn1nc[nH]c1=S (stereo not shown) [Example 2, 1-(2-(2,4-Difluorophenethyl)-2-hydroxy-3,3-dimethylbutyl)-1H-1,2,4-triazole-5(4H)-thione] | 130 to 132 °C | – | –
3 | CC(C)(C)C(O)(CCc1ccc(Cl)c(Cl)c1)Cn1nc[nH]c1=S (stereo not shown) [Example 3, 1-(2-(3,4-Dichlorophenethyl)-2-hydroxy-3,3-dimethylbutyl)-1H-1,2,4-triazole-5(4H)-thione] | 155 to 157 °C | – | –
4 | CC(C)(C)C(O)(CCc1ccc(F)cc1)Cn1nc[nH]c1=S (stereo not shown) [Example 4, 1-(2-(4-Fluorophenethyl)-2-hydroxy-3,3-dimethylbutyl)-1H-1,2,4-triazole-5(4H)-thione] | 134 to 135 °C | 7% | –
5 | CC(C)(C)C(O)(CCc1ccc(C(F)(F)F)cc1)Cn1nc[nH]c1=S (stereo not shown) [Example 6, 1-(2-Hydroxy-3,3-dimethyl-2-(4-(trifluoromethyl)phenethyl)butyl)-1H-1,2,4-triazole-5(4H)-thione] | 139 to 140 °C | – | –
6 | CC(C)(C)C(O)(CCc1ccc(Cl)cc1Cl)Cn1nc[nH]c1=S (stereo not shown) [Example 1, 1-(2-(2,4-dichlorophenethyl)-2-hydroxy-3,3-dimethylbutyl)-1H-1,2,4-triazole-5(4H)-thione] | – | – | 15%
